Data on four molecules can be found in article PMC6718149, “Structure of GTP cyclohydrolase I from Listeria monocytogenes, a potential anti-infective drug target” (Acta Crystallographica. Section F, Structural Biology …, 2019).

In series [1] the target is T1, GTP cyclohydrolase I from L. monocytogenes (Listeria monocytogenes serovar 1/2a, UniProt Q8Y5X1).
T1 construct: made in house; host or cells: Escherichia coli XL1-Blue, plasmid pNCO-His6-EK-LmGTP-CHI
The experiment in a line: Photometric GTP cyclohydrolase I inhibition assay (330 nm), IC50 determination of screening hits. The format is biochemical. As to conditions: GTP cyclohydrolase I from L. monocytogenes (red curve); 200 µM GTP, pH 7.5; calculated with DynaFit. The procedure:
(§1) In order to explore the druggability of the protein, we screened a small library of about 9000 highly diverse compounds (Bracher et al., 1998[▸]). Assays were run in 384-well plates and were monitored photometrically at 330 nm. Hits were rescreened against GTP cyclohydrolase I from L. monocytogenes and human GTP cyclohydrolase I, and IC50 values were determined using the photometric assay. […] Although stronger inhibitors have been reported down to a K i of 5.4 nM (Tanaka et al., 2005[▸]), all of the inhibitors reported so far are substrate or product analogs.
(§2) Assay mixtures contained 50 mM Tris hydrochloride, pH 7.5, 100 mM KCl, 200 µM GTP, and protein. They were monitored photometrically at 330 nm.
(§3) S2. High throughput screen
(§4) A substance library of 9,000 test compounds (courtesy of BASF Crop protection division, Ludwigshafen, Germany) was tested against GTP cyclohydrolase I protein from L. monocytogenes in 384 well clear bottom plates (Corning, polystyrol, flat-bottom, non-treated surface). 32 wells of each plate were used as “signal”, i.e. as positive control with enzyme and substrate, but without test compound. 32 wells of each plate were used as “control”, i.e. as negative control with substrate but without enzyme or test compound. Each of the remaining 320 wells contained app. 50 µM test compound (depending on the molecular weight of a given test substance) in 3 µL DMSO. The compounds were pipetted with a Hamilton Starlet robot (Hamilton Germany GmbH, Planegg, Germany) with a 96-tip pipetting block. Enzyme (final concentration 8.7 µM) and substrate (final concentration 200 µM) were supplied in separate solutions that both contained 50 mM Tris hydrochloride, pH 7.5 and 100 mM KCl. 30 µL per well of both solutions were filled in to the assay plates with an 8-fold dispenser (Bio Tek Germany, Bad Friedrichshall, Germany) and the plates were then centrifuged for 1 min at 1,000 rpm and room temperature. The reaction was monitored with a SpectraMax M5 plate reader photometer (Molecular Devices GmbH, Biberach a. d. Riss, Germany) at 330 nm and room temperature for 30 min. […]

In series [2] the target is T2, human GTP cyclohydrolase I (Homo sapiens, UniProt P30793).
T2 construct: made in house
T2 sequence (P30793 43-250 limits assumed): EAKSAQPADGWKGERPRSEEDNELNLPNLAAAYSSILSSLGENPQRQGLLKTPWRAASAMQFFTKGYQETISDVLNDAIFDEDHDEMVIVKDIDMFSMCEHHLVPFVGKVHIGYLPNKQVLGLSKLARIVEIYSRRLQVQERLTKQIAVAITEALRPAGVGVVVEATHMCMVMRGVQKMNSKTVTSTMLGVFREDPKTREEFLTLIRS
The experiment in a line: Photometric counterscreen against human GTP cyclohydrolase I (330 nm). The format is biochemical. As to conditions: human GTP cyclohydrolase I (blue curve); 200 µM GTP, pH 7.5; calculated with DynaFit. The procedure: as §1, §2, §3, §4

Series [3] concerns the molecule itself. The experiment in a line: crystal structure; sitting-drop vapor diffusion, 1.33 M sodium citrate, 0.1 M HEPES pH 7.3; 2.4 Å; one decamer in the asymmetric unit.

Bounds are passed on as bounds.

The term IC50 denotes the concentration at which inhibition is half-maximal. As to `C=CCNc1nc(N)c(C(=O)c2ccc3c(c2)OCO3)s1` [(a)], the half-inhibitory concentration (IC50) in series [1] was 13 ± 1 µM; in series [2] it was greater than 500 µM.
On the same counts, the results for `O=C1CS/C(=N/N=C/c2ccc(-c3ccc(Cl)cc3)o2)N1` [(b)] are 27 ± 6 µM and 238 ± 40 µM.
As to `Cc1ccc(OC(=S)Nc2ccc(NC(=S)Oc3ccc(C)cc3)cc2)cc1` [(c)], the figures for the IC50 in series [1] and in series [2] were 36 ± 3 µM and 327 ± 66 µM, respectively.

B1: GTP cyclohydrolase I from Listeria monocytogenes (enzyme, L. monocytogenes)
chain: EQIDKQKIADAVKVILEAVGENPDREGLIDTPMRVARMYEEVFAGLKKDPSVHFDTIFEEQHEELVLVKDIRFSSMCEHHLVPFFGVAHVAYLPQNGRVAGLSKLARVVDDVSRRPQLQERITTTVAEIMMEKLKPLGVMVIMEAEHMCMTIRGVNKPGTKTITSAVRGAFKNDDKLRSEVLALIKHN
modifications: Cys78 and Cys150 oxidized to the disulfide level (in the crystal; zinc lost)
notes: GTP cyclohydrolase I (folE), L. monocytogenes ATCC BAA-679; the natural stretch begins at Glu (first cloned triplet GAG) and runs to the stop codon; the printed Cys78 and Cys150 fit numbering with this Glu as residue 2; D5-symmetric homodecamer; also called LmGTPCHI; His6-EK-LmGTP-CHI; source: E. coli XL1-Blue (plasmid pNCO-His6-EK-LmGTP-CHI), purified (nickel-NTA agarose, Superdex 200); not …
The stoichiometry N is a count of units in the complex or per binding partner. As for B1, in series [3], the “stoichiometry N” value was 10.
